What was measured:
human FSH receptor = molecular target: T1, human FSH receptor (Homo sapiens, UniProt P23945); test: hFSHRago (CHO luc): agonistic activity at the human FSH receptor expressed in CHO cells, CRE-luciferase reporter; assay type: cell-based; conditions: CHO cells stably transfected with human FSH receptor and CRE/luciferase reporter; 4 hours of incubation
T1 construct: expressed in transfected cells
T1 sequence (P23945 18-695): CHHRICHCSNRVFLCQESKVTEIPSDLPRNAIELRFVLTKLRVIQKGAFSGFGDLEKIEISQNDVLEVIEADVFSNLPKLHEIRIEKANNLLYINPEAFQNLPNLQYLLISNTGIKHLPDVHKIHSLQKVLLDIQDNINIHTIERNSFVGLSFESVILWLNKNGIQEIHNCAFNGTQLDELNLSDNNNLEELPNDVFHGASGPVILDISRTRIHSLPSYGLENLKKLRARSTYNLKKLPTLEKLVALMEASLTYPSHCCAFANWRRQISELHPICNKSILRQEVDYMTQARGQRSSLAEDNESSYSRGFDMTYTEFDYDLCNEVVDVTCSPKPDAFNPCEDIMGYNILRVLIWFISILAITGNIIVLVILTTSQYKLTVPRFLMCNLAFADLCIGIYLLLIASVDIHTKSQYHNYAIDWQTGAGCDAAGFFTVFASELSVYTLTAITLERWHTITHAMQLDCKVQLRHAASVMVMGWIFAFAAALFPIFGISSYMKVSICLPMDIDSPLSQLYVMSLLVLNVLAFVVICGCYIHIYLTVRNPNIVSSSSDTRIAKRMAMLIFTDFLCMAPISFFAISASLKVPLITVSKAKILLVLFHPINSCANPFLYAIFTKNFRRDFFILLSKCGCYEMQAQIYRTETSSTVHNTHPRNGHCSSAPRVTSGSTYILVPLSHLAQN

Row | SMILES | EC50 (human FSH receptor) [µM] | melting point [°C]
1 | COc1cc2c(cc1OC(C)C)-c1c(-c3cccs3)cc(C(=O)N3CC4CC(C3)C3CCCC(=O)N3C4)n1CC2 (stereo not drawn) [Example 19, 3-(9-Isopropoxy-8-methoxy-1-thiophen-2-yl-5,6-dihydro-pyrrolo[2,1-α]isoquinoline-3-carbonyl)-decahydro-1,5-methano-pyrido[1,2-α][1,5]diazocin-8-one] | 0.0294 | 207 to 208
2 | COc1cc2c(cc1OC(C)C)-c1c(-c3cccs3)cc(C(=O)N3C[C@H]4C[C@@H](NC(C)=O)C[C@H]4C3)n1CC2 [Example 25, N-[-2-(9-isopropoxy-8-methoxy-1-thiophen-2-yl-5,6-dihydro-pyrrolo[2,1-α]isoquinoline-3-carbonyl)-octahydro-cyclopenta[c]pyrrol-5-endo-yl]-acetamide] | 0.0454 | 106 to 112
3 | COc1cccc(Oc2cc3c(cc2OC)CCn2c(C(=O)N(C)C(C)(C)C)cc(-c4cccs4)c2-3)c1 [Example 74, N-tert-butyl-8-methoxy-9-(3-methoxyphenoxy)-N-methyl-1-(thiophen-2-yl)-5,6-dihydropyrrolo[2,1-α]isoquinoline-3-carboxamide] | 0.203 | 176 to 177
4 | COc1cc2c(cc1Oc1ncccn1)-c1c(-c3cccs3)cc(C(=O)N(C)C(C)(C)C)n1CC2 [Example 76, N-tert-butyl-8-methoxy-N-methyl-9-(pyrimidin-2-yloxy)-1-(thiophen-2-yl)-5,6-dihydro-pyrrolo[2,1-α]isoquinoline-3-carboxamide] | 0.0189 | 164 to 165

The next compounds have a lower EC50 (human FSH receptor) than those just listed; values first:

Row | EC50 (human FSH receptor) [µM] | melting point [°C] | SMILES
5 | 0.001 | 150 to 152 | COc1cc2c(cc1OC(C)C)-c1c(-c3cccs3)cc(C(=O)N(C)C(C)(C)CO)n1CC2 [Example 30, 9-Isopropoxy-8-methoxy-1-thiophen-2-yl-5,6-dihydro-pyrrolo[2,1-α]isoquinoline-3-carboxylic acid (2-hydroxy-1,1-dimethyl-ethyl)-methyl-amide]
6 | 0.0163 | 158 to 159 | COc1cc2c(cc1Oc1cccc(F)c1)-c1c(-c3cccs3)cc(C(=O)N(C)C(C)(C)C)n1CC2 [Example 75, 9-(3-Fluoro-phenoxy)-8-methoxy-1-thiophen-2-yl-5,6-dihydro-pyrrolo[2,1-α]isoquinoline-3-carboxylic acid tert-butyl-methyl-amide]
7 | 0.006 | 153 to 154 | COc1cc2c(cc1CCC(C)(C)O)-c1c(-c3cccs3)cc(C(=O)N(C)C(C)(C)C)n1CC2 [Example 92, 9-(3-Hydroxy-3-methyl-butyl)-8-methoxy-1-thiophen-2-yl-5,6-dihydro-pyrrolo[2,1-α]isoquinoline-3-carboxylic acid tert-butyl-methyl-amide]
8 | 0.013 | 223 to 224 | COc1cc2c(cc1NC(=O)c1cccnc1)-c1c(-c3cccs3)cc(C(=O)N(C)C(C)(C)C)n1CC2 [Example 102, 8-Methoxy-9-[(pyridine-3-carbonyl)-amino]-1-thiophen-2-yl-5,6-dihydro-pyrrolo[2,1-α]isoquinoline-3-carboxylic acid tert-butyl-methyl-amide]
9 | 0.001 | 149 to 152 | COc1cc2c(cc1C(=O)Nc1nncs1)-c1c(-c3cccs3)cc(C(=O)N(C)C(C)(C)C)n1CC2 [Example 123, 8-Methoxy-1-thiophen-2-yl-5,6-dihydro-pyrrolo[2,1-α]isoquinoline-3,9-dicarboxylic acid 3-(tert-butyl-methyl-amide) 9-[1,3,4]thiadiazol-2-ylamide]

From patent publication US8394789B2, “(Dihydro)pyrrolo[2,1-α]isoquinolines” (MSD Oss B.V., priority 2008, dated 2013)
